Literature values in publication PMC5488687 (The Biochemical journal, 2016).
Like-named read-outs stand apart in the source and are kept apart here.

What was measured:
[1] = test system: KIFC1
[2] = test system: cells with amplified centrosomes
[3] = test system: KIFC1/MT complex
[4] = test system: neuroblastoma N1E-115 cells; details: read-out: IC50, cell viability of N1E-115 cells
[5] = test system: normal human dermal fibroblasts (NHDF); details: read-out: IC50, cell viability of NHDF cells
[6] = test system: neuroblastoma N1E-115 cells
[7] = test system: normal human dermal fibroblasts (NHDF)

Row | IC50 ([1]; read-out: IC50, MT-stimulated KIFC1 ATPase activity) | IC50 ([1]; read-out: IC50, KIFC1 ATPase activity) | IC50 [4] | SMILES | multipolar spindle formation and mitotic catastrophe [2] | binding to KIFC1/MT complex versus KIFC1 or MT alone [3] | IC50 [5] | multipolar spindle formation in N1E-115 cells [6] | effect on bipolar spindle formation in NHDF [7]
1 | 0.3 µM | – | – | CCCc1cc(C(=O)N[C@H](Cc2ccc(-c3cccc(OC(F)(F)F)c3)nc2)C(=O)N[C@@H]2CCNC2)sc1C [AZ82] | triggered multipolar spindle formation and mitotic catastrophe | bound specifically to KIFC1/MT complex but did not interact directly with KIFC1 or MT | – | – | –
2 | – | 75 µM | 86 µM | O=C(O)c1cc(I)ccc1NC(=O)[C@H](Cc1ccccc1)NCc1ccccc1 [CW069] | – | – | 187 µM | increased multipolar spindle formation | no effects
